Patent US12139520B2 (priority 2020, dated 2024)
Bridge positions count the residues as written; N and C are the ends. Square brackets hold non-standard residues; d marks the D form. Peptide text beside a SMILES is read from it. Hyp = O=C(O)[C@@H]1C[C@@H](O)CN1; Cit = NC(=O)NCCC[C@H](N)C(=O)O

Test: Physical stability of peptide analogues (Thioflavin T fibrillation)
Assay type: physicochemical
Settings: maximum ThT signal normalized between hAMY maximum and buffer background; 40° C., shaking, four days; pH 7 per table title
Summary of the method: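 ThT fluorescence (450 nm excitation, 480 nm emission; 4 μM dye) was read every 10 min over four days at 40° C under 700 rpm shaking stress, after 1 h in pH 4 acetate or pH 7 phosphate (50 mM). Peak smoothed signal expressed as percent, scaled between buffer background and hAMY maximum.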

| Max ThT signal (%) | Compound |
| --- | --- |
| 1.600 | CC[C@H](C)[C@H](NC(=O)[C@H](CCC(N)=O)NC(=O)[C@H](Cc1c[nH]cn1)NC(=O)[C@H](C)NC(=O)[C@H](CC(C)C)NC(=O)[C@H](CCCNC(=N)N)NC(=O)[C@H](CCC(N)=O)NC(=O)[C@@H](NC(=O)[C@@H](NC(=O)[C@@H]1CSSC[C@H](NC(=O)CN)C(=O)N[C@@H](CCCNC(=N)N)C(=O)N[C@@H]([C@@H](C)O)C(=O)NCC(=O)N[C@@H]([C@@H](C)O)C(=O)N1)[C@@H](C)O)C(C)C)C(=O)N[C@@H](Cc1ccc(O)cc1)C(=O)N[C@@H](CCC(N)=O)C(=O)N[C@@H](Cc1ccccc1)C(=O)N[C@H](C(=O)N[C@@H](CC(=O)O)C(=O)N[C@@H](CCCCN)C(=O)N[C@@H](CC(=O)O)C(=O)N[C@@H](CCCCN)C(=O)N[C@@H](CC(=O)O)C(=O)N[C@@H](CC(N)=O)C(=O)N[C@H](C(=O)N[C@@H](C)C(=O)N1CCC[C@H]1C(=O)N[C@@H](CCCNC(=N)N)C(=O)N[C@@H](CO)C(=O)N[C@@H](CCCCN)C(=O)N[C@H](C(=O)NCC(=O)N1CCC[C@H]1C(=O)N[C@@H](CCC(N)=O)C(=O)NCC(=O)N1C[C@H](O)C[C@H]1C(N)=O)C(C)C)C(C)C)[C@@H](C)O [compound 187] (H-GCRTGTCTVQRLAHQIYQFTDKDKDNVAPRSKVGPQG[Hyp]-NH2; disulfide 2-7; N-terminus assumed) |
| 4.200 | CC[C@H](C)[C@@H]1NC(=O)[C@H](CCCNC(=N)N)NC(=O)[C@@H](NC(=O)CN)CSSC[C@@H](C(=O)N[C@H](C(=O)N[C@H](C(=O)N[C@@H](CCC(N)=O)C(=O)N[C@@H](CCCNC(=N)N)C(=O)N[C@@H](CC(C)C)C(=O)N[C@@H](C)C(=O)N[C@@H](Cc2c[nH]cn2)C(=O)N[C@@H](CCC(N)=O)C(=O)N[C@H](C(=O)N[C@@H](Cc2ccc(O)cc2)C(=O)N[C@@H](CCC(N)=O)C(=O)N[C@@H](Cc2ccccc2)C(=O)N[C@H](C(=O)N[C@@H](CC(N)=O)C(=O)N[C@@H](CCCCN)C(=O)N[C@@H](CC(=O)O)C(=O)N[C@@H](CCCCN)C(=O)N[C@@H](CC(=O)O)C(=O)N[C@@H](CC(N)=O)C(=O)N[C@H](C(=O)N[C@@H](C)C(=O)N2CCC[C@H]2C(=O)N[C@@H](CCCNC(=N)N)C(=O)N[C@@H](CO)C(=O)N[C@@H](CCCCN)C(=O)N[C@H](C(=O)N[C@@H](CO)C(=O)N2CCC[C@H]2C(=O)N[C@@H](CCC(N)=O)C(=O)N[C@H](C(=O)N2C[C@H](O)C[C@H]2C(N)=O)[C@@H](C)O)[C@@H](C)CC)C(C)C)[C@@H](C)O)[C@@H](C)CC)C(C)C)[C@@H](C)O)NC(=O)[C@H]([C@@H](C)O)NC(=O)CNC1=O [compound 198] (H-GCRIGTCTVQRLAHQIYQFTNKDKDNVAPRSKISPQT[Hyp]-NH2; disulfide 2-7; N-terminus assumed) |
| 4.700 | CC[C@H](C)[C@H](NC(=O)[C@H](C)NC(=O)CNC(=O)[C@H](CC(=O)O)NC(=O)[C@H](CCCCN)NC(=O)[C@H](CC(=O)O)NC(=O)[C@@H](NC(=O)[C@H](Cc1ccccc1)NC(=O)[C@H](CCC(N)=O)NC(=O)[C@H](Cc1ccc(O)cc1)NC(=O)[C@H](CC(C)C)NC(=O)[C@H](Cc1ccccc1)NC(=O)[C@H](Cc1c[nH]cn1)NC(=O)[C@H](C)NC(=O)[C@H](CC(C)C)NC(=O)[C@H](CCCNC(N)=O)NC(=O)[C@H](CCC(N)=O)NC(=O)[C@@H](NC(=O)[C@@H](NC(=O)[C@@H]1CSSC[C@H](NC(=O)CN)C(=O)N[C@@H](CCCNC(=N)N)C(=O)N[C@@H](Cc2ccccc2)C(=O)NCC(=O)N[C@@H]([C@@H](C)O)C(=O)N1)[C@@H](C)O)C(C)C)[C@@H](C)O)C(=O)N[C@@H](C)C(=O)N1CCC[C@H]1C(=O)N[C@@H](CCCNC(=N)N)C(=O)N[C@H](C(=O)N[C@@H](CCCCN)C(=O)N[C@H](C(=O)NCC(=O)N[C@@H](CO)C(=O)N[C@@H](CCC(N)=O)C(=O)NCC(=O)N[C@@H](Cc1ccc(O)cc1)C(N)=O)[C@@H](C)CC)[C@@H](C)O [compound 282] (H-GCRFGTCTVQ[Cit]LAHFLYQFTDKDGAIAPRTKIGSQGY-NH2; disulfide 2-7; N-terminus assumed) |
| 12.900 | CC[C@H](C)[C@H](NC(=O)[C@H](CCC(N)=O)NC(=O)[C@H](Cc1c[nH]cn1)NC(=O)[C@H](C)NC(=O)[C@H](CC(C)C)NC(=O)[C@H](CCCNC(=N)N)NC(=O)[C@H](CCC(N)=O)NC(=O)[C@@H](NC(=O)[C@@H](NC(=O)[C@@H]1CSSC[C@H](NC(=O)CN)C(=O)N[C@@H](CCCNC(=N)N)C(=O)N[C@@H]([C@@H](C)O)C(=O)NCC(=O)N[C@@H]([C@@H](C)O)C(=O)N1)[C@@H](C)O)C(C)C)C(=O)N[C@@H](Cc1ccc(O)cc1)C(=O)N[C@@H](CCC(N)=O)C(=O)N[C@@H](Cc1ccccc1)C(=O)N[C@H](C(=O)N[C@@H](CC(=O)O)C(=O)N[C@@H](CCCCN)C(=O)N[C@@H](CC(=O)O)C(=O)N[C@@H](CCCCN)C(=O)N[C@@H](CC(=O)O)C(=O)N[C@@H](CC(N)=O)C(=O)N[C@H](C(=O)N[C@@H](C)C(=O)N1CCC[C@H]1C(=O)N[C@@H](CCCNC(=N)N)C(=O)N[C@H](C(=O)N[C@@H](CCCCN)C(=O)N[C@H](C(=O)N[C@@H](CO)C(=O)N1CCC[C@H]1C(=O)N[C@@H](CC(N)=O)C(=O)NCC(=O)N[C@@H](Cc1ccc(O)cc1)C(N)=O)[C@@H](C)CC)[C@@H](C)O)C(C)C)[C@@H](C)O [compound 190] (H-GCRTGTCTVQRLAHQIYQFTDKDKDNVAPRTKISPNGY-NH2; disulfide 2-7) |
| 3.200 | CC[C@H](C)[C@H](NC(=O)[C@H](CCC(N)=O)NC(=O)[C@H](Cc1c[nH]cn1)NC(=O)[C@H](C)NC(=O)[C@H](CC(C)C)NC(=O)[C@H](CCCNC(=N)N)NC(=O)[C@H](CCC(N)=O)NC(=O)[C@@H](NC(=O)[C@@H](NC(=O)[C@@H]1CSSC[C@H](NC(=O)CN)C(=O)N[C@@H](CCCNC(=N)N)C(=O)N[C@@H](Cc2ccccc2)C(=O)NCC(=O)N[C@@H]([C@@H](C)O)C(=O)N1)[C@@H](C)O)C(C)C)C(=O)N[C@@H](Cc1ccc(O)cc1)C(=O)N[C@@H](CCC(N)=O)C(=O)N[C@@H](Cc1ccccc1)C(=O)N[C@H](C(=O)N[C@@H](CC(=O)O)C(=O)N[C@@H](CCCCN)C(=O)N[C@@H](CC(=O)O)C(=O)N[C@@H](CCCCN)C(=O)N[C@@H](CC(=O)O)C(=O)N[C@@H](CC(N)=O)C(=O)N[C@H](C(=O)N[C@@H](C)C(=O)N1CCC[C@H]1C(=O)N[C@@H](CCCNC(=N)N)C(=O)N[C@@H](CO)C(=O)N[C@@H](CCCCN)C(=O)N[C@H](C(=O)N[C@@H](CO)C(=O)N1CCC[C@H]1C(=O)N[C@@H](CC(N)=O)C(=O)NCC(=O)N1C[C@H](O)C[C@H]1C(N)=O)C(C)C)C(C)C)[C@@H](C)O [compound 175] (H-GCRFGTCTVQRLAHQIYQFTDKDKDNVAPRSKVSPNG[Hyp]-NH2; disulfide 2-7) |
| 2.600 | CC[C@H](C)[C@H](NC(=O)[C@H](CCC(N)=O)NC(=O)[C@H](Cc1c[nH]cn1)NC(=O)[C@H](C)NC(=O)[C@H](CC(C)C)NC(=O)[C@H](CCCCN)NC(=O)[C@H](CCC(N)=O)NC(=O)[C@@H](NC(=O)[C@@H](NC(=O)[C@@H]1CSSC[C@H](NC(=O)CN)C(=O)N[C@@H](CCCNC(=N)N)C(=O)N[C@@H](Cc2ccccc2)C(=O)NCC(=O)N[C@@H]([C@@H](C)O)C(=O)N1)[C@@H](C)O)C(C)C)C(=O)N[C@@H](Cc1ccc(O)cc1)C(=O)N[C@@H](CCC(N)=O)C(=O)N[C@@H](Cc1ccccc1)C(=O)N[C@H](C(=O)N[C@@H](CC(=O)O)C(=O)N[C@@H](CCCCN)C(=O)N[C@@H](CC(=O)O)C(=O)N[C@@H](CCCCN)C(=O)N[C@@H](CC(=O)O)C(=O)N[C@@H](CC(N)=O)C(=O)N[C@H](C(=O)N[C@@H](C)C(=O)N1CCC[C@H]1C(=O)N[C@@H](CCCNC(=N)N)C(=O)N[C@@H](CO)C(=O)N[C@@H](CCCCN)C(=O)N[C@H](C(=O)N[C@@H](CO)C(=O)N1CCC[C@H]1C(=O)N[C@@H](CCC(N)=O)C(=O)NCC(=O)N[C@@H](Cc1ccc(O)cc1)C(N)=O)[C@@H](C)CC)C(C)C)[C@@H](C)O [compound 1] |
| 0.900 | CC[C@H](C)[C@H](NC(=O)[C@H](CCC(N)=O)NC(=O)[C@H](Cc1c[nH]cn1)NC(=O)[C@H](C)NC(=O)[C@H](CC(C)C)NC(=O)[C@H](CCCNC(=N)N)NC(=O)[C@H](CCC(N)=O)NC(=O)[C@@H](NC(=O)[C@@H](NC(=O)[C@@H]1CSSC[C@H](NC(=O)CN)C(=O)N[C@@H](CCCNC(=N)N)C(=O)N[C@@H]([C@@H](C)O)C(=O)NCC(=O)N[C@@H]([C@@H](C)O)C(=O)N1)[C@@H](C)O)C(C)C)C(=O)N[C@@H](Cc1ccc(O)cc1)C(=O)N[C@@H](CCC(N)=O)C(=O)N[C@@H](Cc1ccccc1)C(=O)N[C@H](C(=O)N[C@@H](CC(=O)O)C(=O)N[C@@H](CCCCN)C(=O)N[C@@H](Cc1ccccc1)C(=O)N[C@@H](CCCCN)C(=O)N[C@@H](CC(=O)O)C(=O)N[C@@H](CC(N)=O)C(=O)N[C@H](C(=O)N[C@@H](C)C(=O)N1CCC[C@H]1C(=O)N[C@@H](CCCNC(=N)N)C(=O)N[C@@H](CO)C(=O)N[C@@H](CCCCN)C(=O)N[C@H](C(=O)N[C@@H](CO)C(=O)N1CCC[C@H]1C(=O)N[C@@H](CCC(N)=O)C(=O)N[C@H](C(=O)N[C@@H](C)C(N)=O)[C@@H](C)O)[C@@H](C)CC)C(C)C)[C@@H](C)O [compound 241] (H-GCRTGTCTVQRLAHQIYQFTDKFKDNVAPRSKISPQTA-NH2; disulfide 2-7; N-terminus assumed) |
